Paper PMC5838563, “Compounds producing an effective combinatorial regimen for disruption of HIV‐1 latency” (EMBO Molecular Medicine, 2017)

Tested on: HIV‐1 LTR (Jurkat^Tat LTR‐luciferase cell line)
Experiment: Jurkat^Tat LTR‐luciferase reporter assay for HIV‐1 latency reversal
Type: cell-based
Settings: Human immunodeficiency virus 1; 24 h treatment, percent activation relative to PMA
Experimental: Activity of compounds identified for latency‐reversing activity in the primary screens was further validated by examining the effect of a single concentration (7 μM) on an alternative reporter cell line, bearing an integrated HIV‐1 reporter virus where luciferase expression is produced from the 5′ LTR, in cells constitutively expressing the viral TAT protein (Fig 2A), referred to as Jurkat^Tat LTR‐luciferase. Importantly, this cell line has the HIV‐1 reporter virus integrated at a different chromosomal location than that of the A1 J‐Lat cell line and also enables validation of provirus reactivation with a second enzymatic luciferase assay. In these assays, after 24‐h treatment we observed 10 compounds that produced significant induction of luciferase activity, including two compounds from the KD2 library, three from the CCBN library and five compounds from the DIVERSet. Compounds that produced significant effects in these secondary assays were re‐ordered from their respective suppliers and examined in more detail using the HIV‐luciferase reporter cell line. […] These five compounds represent diverse chemical structures (Fig 2G).
Figure 2 Concentration–response analysis for five selected PH compounds • A Schematic representation of the pTY‐LAI‐luciferase reporter virus used in secondary screening assays, where luciferase expression is under the control of the 5′ LTR, in cloned lines derived from Jurkat^TAT cells bearing single‐copy integrants. • B–F Luciferase activity was measured from reporter cells treated for 24 h with the indicated compound concentrations. Results are presented as percent activation relative to PMA‐treated controls. The EC50 for each compound is indicated. Mean and standard error (SE) for the results are determined from three biological replicates (n = 3) and technical duplicates. • G Illustration of chemical structures of the PH compounds.
Luciferase assays were performed in 96‐well plate format, where 100 μl of cell culture containing 1 × 10^5 luciferase reporter cells was plated per well. After the indicated time of treatment, 100 μl of luciferase assay reagent (SuperlightTM luciferase reporter Gene Assay Kit; BioAssay Systems) was added per well, and incubated for 2 min at RT, when luciferase activity was measured on a VictorTM X3 Multilabel Plate Reader. Results were presented relative to the positive control samples treated with 50 nM PMA. T‐cell activation was measured using 1 × 10^5 wild‐type Jurkat^Tat cells or PBMCs purified from healthy donors, treated as indicated. After 24 h, cells were incubated with 2.4G2 antibody to block nonspecific binding and further stained with 5 μl of anti‐human CD69 or an IgG1 isotype control antibody conjugated with PE‐Cy^Tm7. After 30‐min incubation on ice, the cells were washed twice with PBS and analyzed using a Becton Dickinson LSRII flow cytometer (BD Biosciences) to determine mean fluorescence intensity (MFI), using FlowJo software. The mean fluorescence intensity (MFI) obtained from cells stained with IgG isotype antibody control was subtracted from that from cells stained with CD69 to compensate for background (MFICD69‐MFIIgG). IL‐2 production was measured in cell culture supernatants using a human IL‐2 ELISA System (eBioscience). Jurkat^Tat clones bearing integrations of the mini‐dual HIV reporter virus, clone #11 and #131, were plated at 1 × 10^5 per well in a 96‐well plate format, treated for the indicated time, washed with 1 ml PBS, and then transferred into flow cytometry tubes, where they were fixed with freshly made 1% formaldehyde for 10 min at RT prior to analysis by flow cytometry. Results are presented as ΔMFI, where MFI obtained from parental Jurkat^Tat cells undergoing the same treated was subtracted from the MFI corresponding to each cell line; ΔMFI = (MFI compound‐treated cell line 131/11 − MFI compound‐treated WT Jurkat^Tat cells).

`CC(=O)Oc1ccccc1N(C=C1Sc2ccccc2C1=O)C(C)=O` [PH02, 2‐{acetyl[(3‐oxo‐1‐benzothien‐2(3H)‐ylidene)methyl]amino}phenyl acetate] was tested, and the EC50 was 0.787 µM.
